Activity calls are given as the source filed them.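 The calls were made as follows: active = AC50 no more than tenfold above the top dose tested, or full inhibition at every dose with a flat fit (cut at about 19 µM in these data); inconclusive = flat curve fit with inhibition between 30% and 70%, or poor fit; inactive = AC50 more than tenfold above the top dose tested.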 Residues, ends and D or L forms follow the SMILES beside them. *: point of attachment. Boc = CC(C)(C)OC(=O)*; Bn = c1ccc(C*)cc1

This test relates to HMLE_sh_eGFP viability, CellTiter-Glo luminescence, 72 h. Description: viability loss of HMLE_sh_eGFP cells – cell-based, luminescence, counter-screen for HMLE_sh_ECad selective toxicity project, dose response (AID 463074).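 Also: counterscreen control line to flag general toxicity for the HMLE_sh_ECad screen; potency for loss of viability as luminescence drops below DMSO wells.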 In general terms: A counterscreen serves to expose hits that act by an unwanted route or on another target.
In the case of `COc1cccc(C2C3=C(N=c4s/c(=C\c5cccc(O)c5)c(=O)n42)c2ccccc2CC3)c1OC` (stereo unspecified), the AC50 is 8.57 µM.

Consider `O=C(Nc1ccc2nc3n(c(=O)c2c1)CCCCC3)c1cc([N+](=O)[O-])ccc1F`, for which the AC50 was 6.62 µM.

Consider `CCCCCNCC(=O)Nc1cccc(C(=O)Nc2cccc(C(F)(F)F)c2)c1`, for which the AC50 was 13.2 µM.

For the molecule `CCc1cc(-c2n[nH]c(C)c2Oc2ccc(C(C)C)cc2)c(O)cc1O`, the AC50 was 3.65 µM.

As for `Cc1ccc(-c2csc3ncnc(NS(=O)(=O)c4ccc(Cl)cc4)c23)cc1`, the half-maximal activity concentration (AC50) is 11.6 µM.

For `Cc1c(C(=O)N(Cc2ccccc2)Cc2cccs2)cnn1-c1ccc(Cl)cc1`, the AC50 was 1.42 µM.

As to `CCCCCCOc1ccc(/C(C)=N/NC2=NCCN2)cc1`, the AC50 is 3.69 µM.

Turning to `CN(C)CCOc1ccc(-c2c(-c3ccccc3)sc3ccccc23)cc1`, the AC50 is 2.53 µM.

`CC#CCOC(=O)c1c(C)nc2sc3c(c2c1N)CCC(O)C3` (stereo unspecified): the AC50 was 2.65 µM.

Consider `CC(/C=C1\SC(=O)N(CC(=O)Nc2cccc(O)c2)C1=O)=C\c1ccccc1`, for which the AC50 was 13.6 µM.

With `CC(C)c1ccc(NC(=O)C(c2ccccc2)N(C)C(=O)CCc2c[nH]c3ccccc23)cc1` (stereo unspecified), the AC50 is 7.92 µM.

`CC(C)c1ccc(-c2cc(C(=O)N3N=C(C(F)F)CC3(O)C(F)F)c3ccccc3n2)cc1` (stereo unspecified): the AC50 is 6.3 µM.

`COC(=O)c1ccc(/C=C/c2c(-c3ccsc3)oc3ccc(N4CCOCC4)cc23)cc1`: the concentration at half-maximal activity (AC50) is 6.37 µM.

Turning to `O=C(N/N=C/c1cn(-c2cccs2)nc1-c1ccccc1)c1ccc(O)cc1`, the concentration at half-maximal activity (AC50) is 7.76 µM.

`COC(=O)[C@@H]1C[C@]2(OC(=O)c3ccccc3)C=CC(=O)C[C@@H]2N1C(=O)OCc1ccccc1`: the half-maximal activity concentration (AC50) is 7.87 µM.

`Cc1cc(Nc2nc(Cl)c(Cl)cc2Cl)n(-c2ccccc2)n1`: the AC50 was 11.3 µM.

As to `C[C@H]1[C@H](C)CC[C@]2(C)CC[C@]3(C)C(=CC(=O)C4[C@@]5(C)CC[C@H](O)C(C)(C)C5CC[C@]43C)[C@H]12` (stereo partly specified), the AC50 was 3.67 µM.

Take `C/C(=N\Nc1ccccc1)c1c(O)[nH]c(=O)[nH]c1=O`: the concentration at half-maximal activity (AC50) is 2.25 µM.

With `COc1ccc(-c2sc3ccccc3c2C#Cc2cncn2C)cc1`, the half-maximal activity concentration (AC50) is 4.83 µM.

For `O=Cc1cc2ccccc2nc1SCc1ccc(Cl)c(Cl)c1`, the AC50 is 6.37 µM.

In the case of `COc1ccc(-c2nn(-c3ccccc3)cc2C(=O)N(C)CC(=O)Nc2cccc(F)c2)cc1`, the concentration at half-maximal activity (AC50) was 15 µM.

For `CCc1cc2cc(C)cc(C)c2nc1SCC(=O)N1CCN(C(=O)c2ccco2)CC1`, the half-maximal activity concentration (AC50) was 13.4 µM.

Regarding `Cc1ccc(NCc2ccc([N+](=O)[O-])s2)cc1`, the AC50 is > 19.5 µM (inactive).

As for `O=C(NC(=S)Nc1cccc(Cl)c1N1CCCCC1)c1cccs1`, the AC50 was 6.92 µM.

For the molecule `COc1cc(CN2CCN(c3cccc(Cl)c3)CC2)cc(OC)c1OC`, the half-maximal activity concentration (AC50) is 2.58 µM.

In the case of `CC(C)CC(NC(=O)C(NC(=O)C(Cc1ccc(OCc2ccccc2)cc1)NC(=O)OC(C)(C)C)C(C)C)C(N)=O` (stereo not drawn) (Boc-Tyr(Bn)-Val-Leu-NH2; configuration not given here), the AC50 is > 19.5 µM (inactive).

With `COc1ccc(CCNC(=O)c2coc(=O)c(Br)c2)cc1`, the half-maximal activity concentration (AC50) was 15 µM.

On to `O=C1NC(=Nc2ccc(Cl)cc2)SC1Cc1cccc(Cl)c1Cl` (stereo unspecified), for which the AC50 was > 19.5 µM (inactive).

Take `CN(C)S(=O)(=O)Oc1cccc(C(=O)Nc2ccc(Cl)c(Cl)c2)c1`: the AC50 is 6.22 µM.

Turning to `CCc1ccc(S(=O)(=O)Nc2ccc(O)c3ccccc23)cc1`, the AC50 was 14.7 µM.

With `N#CC1(NC(=O)COC(=O)c2cc(O)c3ccccc3c2O)CCCCC1`, the AC50 was 9.15 µM.

In the case of `C=CCn1c2ccccc2c(=O)c2cc(C#Cc3cc(OC)cc(OC)c3)ccc21`, the half-maximal activity concentration (AC50) is 11.1 µM.

As for `Cc1ccc(-c2cc(C(=O)NCc3ccc4c(c3)OCO4)no2)cc1`, the AC50 is > 19.5 µM (inactive).

As for `CC1(C)C(=O)N(c2ccccc2)C1c1ccccc1O` (stereo unspecified), the half-maximal activity concentration (AC50) was 3.25 µM.

On to `O/N=C/c1ccnc(SCc2ccc(Cl)cc2)n1`, for which the AC50 is 10.9 µM.

As for `Cc1nn(-c2ccccc2)c(C)c1/C=N/NC(=O)c1cc(-c2ccc(Br)s2)[nH]n1`, the AC50 is 4.72 µM.

Turning to `O=C1C2=C(NC(=S)NC2c2ccc(Cl)cc2)NC(c2ccc(Cl)cc2)N1c1ccc(Cl)cc1` (stereo unspecified), the AC50 is 6.8 µM.

With `O=C(Nc1ccc(CN2CCOCC2)cc1)c1ccc(-c2ccc(Cl)cc2Cl)o1`, the half-maximal activity concentration (AC50) is 7.06 µM.

As to `Cc1nn2c(COc3ccc(NC(=O)c4ccccc4Cl)cc3)nnc2c2ccccc12`, the concentration at half-maximal activity (AC50) was 3.08 µM.

For `Cc1ccc(N/N=C/c2ccncc2)cc1`, the half-maximal activity concentration (AC50) is 7.44 µM.

On to `CCCCC1CCC(C(=O)N(CC(C)C)c2c(N)n(Cc3ccccc3)c(=O)[nH]c2=O)CC1` (stereo unspecified), for which the concentration at half-maximal activity (AC50) is 4.62 µM.

For the molecule `O=C(Nc1cccc(Cl)c1N1CCCC1)c1cccc(-c2cc3ccccc3oc2=O)c1`, the AC50 is 0.869 µM.

For the molecule `Cc1[nH]nc2nc(SCC(=O)NC3CCCCC3)n(-c3ccc(Br)cc3)c(=N)c12`, the concentration at half-maximal activity (AC50) is 14.4 µM.

For the molecule `Cc1cc(C(=O)NNc2ccc(Cl)cc2)no1`, the AC50 was 1.37 µM.

Take `COc1ccccc1/C=C1\SC(=S)N(CCC(=O)NCCCn2ccnc2)C1=O`: the AC50 was 18.6 µM.

On to `O=C(Cc1ccc(Cl)cc1)Nc1ccc2c(c1)C(=O)NC2=O`, for which the AC50 was > 19.5 µM (inactive).

Regarding `CCCC[C@@H](CN[C@H](C)CNC)NCC1CCC(C(C)(C)C)CC1` (stereo partly specified), the AC50 was 6.37 µM.

With `Cc1cccc2[nH]c3c(N4CC=C(c5ccc(F)cc5)CC4)ncnc3c12`, the AC50 is 5.01 µM.

For the molecule `O=C(NC(NC(=S)Nc1ccccc1)C(Cl)(Cl)Cl)c1cccc(Cl)c1` (stereo unspecified), the AC50 was 5.36 µM.

Regarding `CCCNCC1C(Oc2ccc(Cl)cc2Cl)C(=O)N1c1cccc(C)c1C` (stereo unspecified), the AC50 is 7.2 µM.

On to `CCOC(=O)c1ccc(-n2[nH]c(-c3ccccc3)cc2=O)cc1`, for which the half-maximal activity concentration (AC50) is 7.96 µM.

Turning to `CN1CCN(c2ccc(NC(=O)c3ccc(C#N)cc3F)cc2Cl)CC1`, the half-maximal activity concentration (AC50) is 19.7 µM.

Turning to `COc1ccc(OC)c(-c2csc(N(CC3CCCO3)C(=O)C3CCCCC3)n2)c1` (stereo unspecified), the AC50 was 7.05 µM.

For `CCOC(=O)C(=Cc1ccc(OCc2ccc([N+](=O)[O-])cc2)c(OC)c1)C(=O)OCC`, the AC50 is 3.03 µM.

For the molecule `CN(CC(O)CON=C1c2ccccc2-c2ccccc21)S(=O)(=O)c1ccc(Br)cc1` (stereo unspecified), the AC50 is 4.4 µM.

On to `O=C(NC(c1ccc(Cl)cc1)c1c(O)ccc2ccccc12)c1ccccc1` (stereo unspecified), for which the AC50 is 2 µM.

On to `COc1cccc(C(=O)Nc2ccc(C3CC3(Cl)Cl)cc2)c1` (stereo unspecified), for which the concentration at half-maximal activity (AC50) was 16.4 µM.

In the case of `COc1ccc(-c2sc3ccccc3c2-c2ccc(OCCN3CCOCC3)cc2)cc1`, the concentration at half-maximal activity (AC50) is 1.51 µM.

`Cc1ccc(C(=O)Nc2nc(C)c(C(=O)Nc3ccc4c(c3)CCC4)s2)cc1`: the AC50 is 18.8 µM.

As to `C(=C\c1nc(N2CCCCCC2)c2ccccc2n1)/c1ccccc1`, the concentration at half-maximal activity (AC50) was 5.54 µM.

On to `Cc1cc(SCC(=O)c2cccs2)n2nc(C)c(-c3ccc(Cl)cc3)c2n1`, for which the AC50 is 15.5 µM.

`CC(CNC(=S)Nc1cc(F)cc(F)c1)CSc1ccc(Cl)cc1` (stereo unspecified): the concentration at half-maximal activity (AC50) was 6.55 µM.

For the molecule `COc1ccc(C(=O)Nc2ccc(OCC(F)(F)C(F)F)c(C(F)(F)F)c2)cc1OC`, the concentration at half-maximal activity (AC50) is 5.48 µM.

As for `COc1cc(NC(=O)c2cc3ccccc3cc2O)c(OC)cc1Cl`, the concentration at half-maximal activity (AC50) is 1.17 µM.

For `O=S(=O)(c1ccc(Cl)cc1)N1CCC(n2cnc3cc(C(F)(F)F)ccc32)CC1`, the AC50 is 4 µM.

Consider `CCOCCCNC(=O)/C(C#N)=C/c1ccc([N+](=O)[O-])o1`, for which the AC50 was 8.21 µM.

Take `O=C(Nc1nc2ccc(SC(F)F)cc2s1)c1ccc(NS(=O)(=O)c2ccc(F)c(F)c2)cc1`: the AC50 was 3.58 µM.

As to `COc1cc(OC)cc(-c2sc3ccc(OC)cc3c2C#CCCO)c1`, the AC50 was 7.93 µM.

Turning to `Cc1ccc([N+](=O)[O-])cc1-c1ccc(/C=C(\C#N)c2[nH]nc(N)c2C#N)o1`, the AC50 was 4.84 µM.

For the molecule `Cc1cc(NCc2ccccn2)n2nc(C)c(-c3ccc(Cl)cc3)c2n1`, the AC50 is 5.92 µM.

Take `C=C1CCN([C@@H](CC(C)C)C(=O)Nc2nc3ccc(Cl)cc3s2)S(=O)(=O)c2ccccc21`: the half-maximal activity concentration (AC50) was 14.5 µM.

With `Cc1ccc(S(=O)(=O)Nc2ccc(-c3nnc(SCc4ccccc4Cl)o3)cc2)cc1`, the concentration at half-maximal activity (AC50) is 5.7 µM.

As for `OCCCn1c(CCNc2nc(-c3ccc(Cl)cc3)cs2)nc2cc(C(F)(F)F)ccc21`, the half-maximal activity concentration (AC50) was 11.3 µM.

On to `Cc1c(C(=O)Nc2ccc(-c3nnc4n3CCCCC4)cc2)oc2c1ccc1ccccc12`, for which the half-maximal activity concentration (AC50) was 5.66 µM.

Consider `CCOC(=O)c1cnc(-n2nc(C)cc2C)nc1NNc1cc(C)nc(-c2ccccc2)n1`, for which the AC50 is 2.97 µM.

For `OCCN1CCN(CCCN2c3ccccc3Sc3ccc(C(F)(F)F)cc32)CC1`, the AC50 is 4.67 µM.

Regarding `Cc1ccc(C2C(/C=C3/SC(=S)NC3=O)=C(c3cccs3)Oc3ccccc32)cc1` (stereo unspecified), the half-maximal activity concentration (AC50) was 1.21 µM.

In the case of `CC(C)(C)c1cc(NCc2ccccn2)n2ncc(-c3ccccc3)c2n1`, the concentration at half-maximal activity (AC50) was 6.85 µM.

As to `C[C@@H]1O[C@@H](O[C@H]2C[C@@H](O)[C@]3(CO)[C@H]4[C@H](O)C[C@]5(C)[C@@H](C6COC(=O)C6)CC[C@]5(O)[C@@H]4CC[C@]3(O)C2)[C@H](O)[C@H](O)[C@H]1O` (stereo partly specified), the AC50 was 0.74 µM.

Take `Cc1cccc(C(=O)NNC2=C(C(=O)C(F)(F)F)CCC2)c1O`: the AC50 was 3.91 µM.

`Fc1cccc(-n2c(-c3cccs3)nc3nc4ccccc4nc32)c1`: the AC50 was 2.32 µM.

Consider `COc1ccc(NC(=O)c2cc3ccc(O)cc3o/c2=N\O)cc1`, for which the AC50 is 9.36 µM.

Take `COc1ccc(-c2cc(C(=O)N3CC4(C)CC3CC(C)(C)C4)no2)cc1` (stereo unspecified): the half-maximal activity concentration (AC50) is 1.43 µM.

Take `CCOC(=O)C1=C(C)NC(C)=C(C(=O)OCC)C1c1ccccc1/C=C/C(=O)OC(C)(C)C`: the AC50 was 4.67 µM.

On to `Cc1ccc(/C=C/C(=O)c2cc(Br)ccc2OC(=O)c2ccco2)cc1`, for which the AC50 was 5.92 µM.

For the molecule `O=C(NCCC1=CCCCC1)c1coc(=O)c(Br)c1`, the AC50 is 11.7 µM.

`O=C(Nc1cc(S(=O)(=O)Nc2ccc(Cl)cc2)ccc1N1CCCCC1)c1ccc(F)cc1`: the concentration at half-maximal activity (AC50) was 8.97 µM.

`Cc1c(CCOC(=O)CC23CC4CC(CC(C4)C2)C3)sc[n+]1CC(=O)c1ccc(Br)cc1`: the AC50 is 2.6 µM.

Regarding `Cc1cc(C)cc(CC(Cc2nc3ccccc3[nH]2)c2nc3ccccc3[nH]2)c1` (stereo unspecified), the AC50 was 7.82 µM.

`COc1ccc(/C=C/C(=O)c2ccccc2)cc1Cn1nnc2ccccc21`: the AC50 was 6.28 µM.

For `Cc1ccc(C(=O)CSc2nc(-c3ccccc3)ccc2C#N)cc1`, the half-maximal activity concentration (AC50) is 2.47 µM.

A word on the AC50: it is the concentration giving half of the maximal activity seen.

The record behind these values is PubChem BioAssay AID463074 (Broad Institute, 2010).
